Results reported in US20210393857A1, “SMALL MOLECULE DRUGS AND METHODS TO ACCELERATE OSSEOINTEGRATION” (The Regents of the University of California, priority 2018, published 2021).
Where a name gives a salt, the structure may show the parent alone. Marks after values point to notes of the source that are not given here.

Experiments:
[1] = system: adenosine A1 and A2 receptors; settings: selectivity A1 over A2; cited from earlier work
α2-adrenoreceptors = settings: comparison within marsanidine, 7-Me-, 7-Cl-, 7-F-marsanidine; cited from earlier work
I1 imidazoline receptor = settings: comparison within marsanidine, 7-Me-, 7-Cl-, 7-F-marsanidine; cited from earlier work
[2] = system: Npas2-LacZ expression of mouse BMSC; assay: High throughput screening of LOPAC 1280 compounds for Npas2-LacZ expression (Beta-Glo β-galactosidase assay); type: cell-based; settings: compound 1 μM, 48 hours, BMSC from Npas2−/− mice carrying LacZ reporter
Experimental: Femur BMSC harvested from Npas2−/− mice were previously characterized for LacZ expression, which was used in this study for high throughput, unbiased screening of Library of Pharmacologically Active Compounds (LOPAC®^1280). (Hassan, N., et al., (2017) PLoS One 12, e0183359). Using 384-well plates, each well was filled with 25 μl non-phenol red DMEM containing 10% FBS and 1% PS, and added 50 nL of LOPAC®^1280 compound (final concentration: 1 μM) using 500 nL pin tool (Biomek FX, Beckman Coulter, Indianapolis, Ind.). To each well, BMSC (Npas2-LacZ) were placed as 1500 cells/25 μl suspension and incubated at room temperature for 1 hour, followed by incubation at 37° C. and 5% CO2 for 48 hours. To measure Npas2-LacZ expression, β-galactosidase activity was measured using a commercially available assay (Beta-Glo Assay System, Promega, Summerville, Calif.).
The Npas2-LacZ expression data were uploaded on an online data analysis tool (CDD Vault, Collaborative Drug Discovery, Inc, Burlingame, Calif.), on which data were normalized and Z-factor was calculated. For this study, hit compounds were selected as Z-score >2.5 or <−2.5.

[3] = system: implant osseointegration in mouse femur; assay: Implant push-out test of Ti implants placed in mouse femur; type: in vivo; settings: 75 mg/Kg daily IP for 2 weeks, machined or B-DAE-DCD surface implants, vs vehicle 0.9% NaCl
From the text: Male 10˜15-wk-old C57Bl/6J mice underwent surgical placement of Ti implants. After anesthesia with isoflurane inhalation, the distal femur was accessed via medial parapatellar arthrotomy with lateral displacement of the quadriceps-patellar complex. After locating the femoral intercondylar notch, the femoral intramedullary canal was manually reamed with a 25-gauge needle for entry into the canal and further reamed with a 23-gauge needle. A Ti implant was inserted in a retrograde fashion into each femur of a mouse. The Ti implant was clipped at 4 mm and further inserted 4 mm using a periodontal probe. The quadriceps-patellar complex was reduced to its anatomic position, and the surgical site was closed using Vicryl 5-0 sutures. Carprofen (5.0 mg/kg) (Rimadyl, Zoetis US, Parsippany, N.J.) was administered subcutaneously at the time of surgery and every 24 hours for 2 days after surgery.
Mice were euthanized and femur bones were harvested at the predetermined healing time. […] The mechanical withholding strength was measured by pushing the implant out from the femur bone marrow using a custom-made stainless-steel pushing rod mounted on a 1000-N load cell (Instron, Canton, Mass.). The axial load on the implant was applied at a cross-head speed of 1 mm/min, and displacement of the implant and the load were recorded. […]

SMILES	affinity for α2-adrenoreceptors (rank among marsanidine analogs) (α2-adrenoreceptors)	affinity for the I1 imidazoline receptor (rank among marsanidine analogs) (I1 imidazoline receptor)	% Activity (activity against negative controls in LOPAC 1280 screening) [2]	further results
CCCn1c(=O)c2[nH]c(-c3ccccc3)nc2n(CCC)c1=O [1,3-dipropyl-8-phenylxanthine]				fold more potent at A1 receptors than at A2 receptors [1]: about 23 fold
Clc1cccc2cnn(N=C3NCCN3)c12 [7-Cl-marsanidine]	higher affinity for α2-adrenoreceptors	lower affinity for the I1 imidazoline receptor		
Fc1cccc2cnn(N=C3NCCN3)c12 [7-F-marsanidine]	comparable affinity for α2-adrenoreceptors	higher affinity for the I1 imidazoline receptor than 7-Cl-marsanidine		
Cc1cccc2cnn(N=C3NCCN3)c12 [7-Me-marsanidine]	low affinity for α2-adrenoreceptors	highest affinity for the I1 imidazoline receptor		
CCCn1c(=O)c2[nH]c(-c3ccc(Cl)cc3N)nc2n(CCC)c1=O [8-(2-amino-4-chlorophenyl)-1,3-dipropylxanthine]				fold more potent at A1 receptors than at A2 receptors [1]: ~400 fold
Cn1c(=O)c2[nH]c(-c3ccc(S(=O)(=O)O)cc3)nc2n(C)c1=O [8-(p-Sulfophenyl)-theophylline, 8-(p-sulfophenyl) theophylline]			104.0%	
O=C1CCc2cc(OCCCCc3nnnn3C3CCCCC3)ccc2N1 [Cilostazol (MS-1505230), 6-[4-(1-cyclohexyl-1H-tetrazol-5-yl)-butoxy]-3,4-dihydro-2(1H)-quinolinone]			26.2%	
Cc1nccc2c1[nH]c1ccccc12 [Harmane (MS-1500866), 1-Methyl-9H-pyrido[3,4-b]indole]			−15.6** %	
C[C@](N)(Cc1ccc(O)c(O)c1)C(=O)O [Methyldopa (L, −), L-α-Methyl-3,4-dihydroxyphenylalanine]			18.1%	implant push-out value [3]: greater push-out value than vehicle treated control mice
CC[C@@H](CO)NC(=O)[C@@H]1C=C2c3cccc4c3c(cn4C)C[C@H]2N(C)C1 [Methysergide maleate, 1-methyl-D-lysergic acid butanolamide]			28.6%	
O=c1ccc2c(OCCCCc3ccccc3)c3ccoc3cc2o1 [Psora-4, 5-(4-phenylbutoxy)psoralen]			35.3%	
c1ccc2c(c1)cnn2N=C1NCCN1 [marsanidine]	highest affinity for α2-adrenoreceptors	lowest affinity for the I1 imidazoline receptor		
